Test results from patent publication US7524847B2, “Fused 1,3-dihydro-imidazole ring compounds” (Eisai R&D Management Co., Ltd., priority 2002, dated 2009).

How the values were obtained:
[1] = target: T1, DPP-IV obtained from pig kidney (Sus scrofa, UniProt P22411); assay: Measurement of DPPIV-inhibiting activity (in vitro experiment); assay type: biochemical; conditions: DPP-IV from pig kidney 10 mU/mL, substrate Gly-Pro-p-nitroanilide 0.33 mM, 20 min preincubation, 20 min reaction, absorbance 405 nm
T1 construct: DPP-IV obtained from pig kidney; from tissue; host or cells: pig kidney
T1 sequence (P22411 whole entry): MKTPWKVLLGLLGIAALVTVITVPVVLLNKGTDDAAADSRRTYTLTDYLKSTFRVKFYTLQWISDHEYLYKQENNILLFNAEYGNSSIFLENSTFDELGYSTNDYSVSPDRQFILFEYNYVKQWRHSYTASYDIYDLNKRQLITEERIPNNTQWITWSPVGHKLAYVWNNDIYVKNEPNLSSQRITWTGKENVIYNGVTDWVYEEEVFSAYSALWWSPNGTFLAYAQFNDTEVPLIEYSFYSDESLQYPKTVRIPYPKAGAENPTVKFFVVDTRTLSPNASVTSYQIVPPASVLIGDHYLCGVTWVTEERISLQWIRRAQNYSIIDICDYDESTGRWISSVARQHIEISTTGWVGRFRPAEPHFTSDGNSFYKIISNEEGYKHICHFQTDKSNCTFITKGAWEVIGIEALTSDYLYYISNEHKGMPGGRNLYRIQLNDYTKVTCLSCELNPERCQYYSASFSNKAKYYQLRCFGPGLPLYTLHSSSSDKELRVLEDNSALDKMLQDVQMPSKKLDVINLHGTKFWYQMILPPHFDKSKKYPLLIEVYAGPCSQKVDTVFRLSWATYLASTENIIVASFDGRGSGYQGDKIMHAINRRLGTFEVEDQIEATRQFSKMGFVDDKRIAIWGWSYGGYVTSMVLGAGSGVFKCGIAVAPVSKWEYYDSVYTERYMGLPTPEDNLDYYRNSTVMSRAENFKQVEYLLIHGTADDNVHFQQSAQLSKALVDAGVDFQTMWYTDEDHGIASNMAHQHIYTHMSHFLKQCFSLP
Method: DPP-IV obtained from pig kidney was dissolved in a reaction buffer (50 mM Tris-HCl pH7.4, 0.1% BSA) at 10 mU/mL, and 110 μL of this was used. 15 μL of the drug obtained from the aforementioned Examples was added, and this was incubated at room temperature for 20 minutes, and then 25 μL of a 2 mM solution of Gly-Pro-p-nitroanilide (final concentration 0.33 mM) was added to start the enzymatic reaction. The reaction time was 20 minutes, and 1 N phosphoric acid solution (25 μL) was added to stop the reaction.

[2] = test system: normal mice (male C57BL/6N); assay: Effects on glucose tolerance in normal mice (in vivo experiment); conditions: 1 mg/kg oral, 30 min before oral glucose 2 g/kg; blood glucose AUC0-120; 0.5% MC group = 100%, NVP DPP728 (10 mg/kg) group = 0%; lower = better
Method: Animals: Male C57BL/6N mice (purchased from Japan Charles River) The test compounds were suspended in a 0.5% methylcellulose (MC) solution at the doses indicated below in Table 2. These test compounds and the NVP DPP728 (U.S. Pat. No. 6,011,155) suspension, or the 0.5% MC solution (the solvent control group), were administered orally at a dose of 10 mL/kg. 30 minutes later, a glucose solution was orally administered at a dose of 10 mL/kg. Glucose was orally administered at a dose of 2 g/kg. The tail vain of unanesthetized mice was cut with a razor blade to cause a small amount of bleeding immediately before administering the test substances or NVP DPP728, and immediately before, as well as 30, 60, and 120 minutes after, administration of the glucose solution. 10 μL of blood was collected, and this was mixed immediately with 0.6 M perchloric acid (140 μL). Glucose present in the supernatant obtained by centrifugation (1500 g, 10 minutes, 4° C., refrigerated centrifuge GS-6KR, Beckman) was measured using Glucose CII Test Wako (Wako Pure Chemicals). Results: In each of the groups to which 0.5% MC solution, NVP DPP728, and the test compounds were administered, the area under the curve of blood glucose vs. time was calculated over 0 to 120 minutes from the time of glucose administration (AUC0-120). Defining the AUC0-120 for the 0.5% MC solution-administered group as 100%, and the AUC0-120 for the NVP DPP728 (10 mg/kg)-administered group as 0%, the degree of improvement in glucose tolerance due to the test compound was calculated by the following equation: Degree of improvement in glucose tolerance (%)=(AUC0-120 of the test compound−AUC0-120 of the NVP DPP728 (10 mg/kg)-administered group)/(AUC0-120 of the 0.5% MC solution-administered group−AUC0-120 of the NVP DPP728 (10 mg/kg)-administered group)×100 The lower the % value, the better the degree of improvement in glucose tolerance.

IC50 [1] [nM]	Compound	Degree of improvement in glucose tolerance (%) [2] [%]
61.9	CC#CCn1c(=O)n(-c2cccnc2)c2ncnc(N3CCNCC3)c21.O=C(O)C(F)(F)F [Example 61, 7-(2-Butynyl)-6-(piperazin-1-yl)-9-(pyridin-3-yl)-7,9-dihydropurin-8-one trifluoroacetic acid salt]	9.4
96.4	CC#CCn1c(=O)n(-c2ccoc2)c2nc(OC)nc(N3CCNCC3)c21.O=C(O)C(F)(F)F [Example 56, 7-(2-Butynyl)-9-(furan-3-yl)-2-methoxy-6-(piperazin-1-yl)-7,9-dihydropurin-8-one trifluoroacetic acid salt]	11.3
251	CC#CCn1c(=O)n(C)c2nc(OCC)nc(N3CCNCC3)c21.O=C(O)C(F)(F)F [Example 10, 7-(2-Butynyl)-2-ethoxy-9-methyl-6-(piperazin-1-yl)-7,9-dihydropurin-8-one trifluoroacetic acid salt]	17.3
240	CC#CCn1c(=O)n(C)c2nc(OC)nc(N3CCNCC3)c21.O=C(O)C(F)(F)F [Example 1, 7-(2-Butynyl)-2-methoxy-9-methyl-6-(piperazin-1-yl)-7,9-dihydropurin-8-one trifluoroacetic acid salt]	19.8
16.7	CC#CCn1c(=O)n(-c2ccnc(Cl)c2)c2ncnc(N3CCNCC3)c21.O=C(O)C(F)(F)F [Example 65, 7-(2-Butynyl)-9-(2-chloro-pyridin-4-yl)-6-(piperazin-1-yl)-7,9-dihydropurin-8-one trifluoroacetic acid salt]	9.5
88.8	CC#CCn1c(=O)n(-c2ccccc2)c2nc(OC)nc(N3CCNCC3)c21.O=C(O)C(F)(F)F [Example 54, 7-(2-Butynyl)-2-methoxy-9-phenyl-6-(piperazin-1-yl)-7,9-dihydropurin-8-one trifluoroacetic acid salt]	24.4
32.5	CC#CCn1c(=O)n(-c2cnc(OC)nc2)c2ncnc(N3CCNCC3)c21.O=C(O)C(F)(F)F [Example 64, 7-(2-Butynyl)-9-(2-methoxy-pyrimidin-5-yl)-6-(piperazin-1-yl)-7,9-dihydropurin-8-one trifluoroacetic acid salt]	−11.4
42.6	CC#CCn1c(=O)n(-c2cccnc2)c2nc(Cl)nc(N3CCNCC3)c21.O=C(O)C(F)(F)F [Example 46, 7-(2-Butynyl)-2-chloro-6-(piperazin-1-yl)-9-(pyridin-3-yl)-7,9-dihydropurin-8-one trifluoroacetic acid salt]	37

Continued, compound first:

Compound	IC50 [1] [nM]	Degree of improvement in glucose tolerance (%) [2] [%]
C=CCOc1nc(N2CCNCC2)c2c(n1)n(C)c(=O)n2CC#CC.O=C(O)C(F)(F)F [Example 15, 2-Allyloxy-7-(2-butynyl)-9-methyl-6-(piperazin-1-yl)-7,9-dihydropurin-8-one trifluoroacetic acid salt]	319	46
C=CCn1c(=O)n(CC#CC)c2c(N3CCNCC3)nc(OC)nc21.O=C(O)C(F)(F)F [Example 47, 9-Allyl-7-(2-butynyl)-2-methoxy-6-(piperazin-1-yl)-7,9-dihydropurin-8-one trifluoroacetic acid salt]	167	11.6
CC#CCn1c(=O)n(CC2CC2)c2nc(OC)nc(N3CCNCC3)c21.O=C(O)C(F)(F)F [Example 51, 7-(2-Butynyl)-9-cyclopropylmethyl-2-methoxy-6-(piperazin-1-yl)-7,9-dihydropurin-8-one trifluoroacetic acid salt]	130	59.3
CC#CCn1c(=O)n(C)c2nc(OC(C)C)nc(N3CCNCC3)c21.O=C(O)C(F)(F)F [Example 7, 7-(2-Butynyl)-2-isopropoxy-9-methyl-6-(piperazin-1-yl)-7,9-dihydropurin-8-one trifluoroacetic acid salt]	199	19.8
CC#CCn1c(=O)n(CC#CC)c2c(N3CCNCC3)nc(OC)nc21.O=C(O)C(F)(F)F [Example 48, 7,9-Di-(2-butynyl)-2-methoxy-6-(piperazin-1-yl)-7,9-dihydropurin-8-one trifluoroacetic acid salt]	71.6	37.4
CC#CCn1c(=O)n(C)c2nc(Oc3ccccc3C#N)nc(N3CCNCC3)c21.O=C(O)C(F)(F)F [Example 13, 2-[7-(2-Butynyl)-9-methyl-8-oxo-6-(piperazin-1-yl)-8,9-dihydro-7H-purin-2-yloxy]benzonitrile trifluoroacetic acid salt]	24.7	33.5
